Holding throughout (format): functional
Assay [1] has as its system Rattus norvegicus. As to the kind of experiment: Anti-inflammatory activity in rat assessed as reduction of carrageenan-induced paw edema at 150 umol/kg, ip after 3.5 hrs relative to control.
The subject of assay [2] is Rattus norvegicus. Briefly: Antihyperlipidemic activity in rat assessed as reduction of tyloxapol-induced plasma triglyceride level at 150 umol/kg, ip after 24 hrs relative to control.
Assay [3] relates to Rattus norvegicus. As to the kind of experiment: Antihyperlipidemic activity in rat assessed as reduction of tyloxapol-induced plasma low density lipoprotein cholesterol level at 150 umol/kg, ip after 24 hrs relative to control.
Assay [4] deals with Rattus norvegicus. As to the kind of experiment: Antihyperlipidemic activity in rat assessed as reduction of tyloxapol-induced plasma total cholesterol level at 150 umol/kg, ip after 24 hrs relative to control.

`CC(C(=O)N1CCSCC1)c1cccc(C(=O)c2ccccc2)c1` (stereo unspecified): the inhibition in vivo at 150 µmol/kg came to 60% in the assay on Rattus norvegicus [1], 43% with Rattus norvegicus [2], 64.9% in the assay on Rattus norvegicus [3] and 49% in the assay with Rattus norvegicus [4].
Regarding `O=C(Cc1ccccc1Nc1c(Cl)cccc1Cl)N1CCSCC1`, the inhibition in vivo at 150 µmol/kg with Rattus norvegicus [1] turned out to be 40%; in the assay with Rattus norvegicus [2], 46.4%; in the assay on Rattus norvegicus [3] it was 70.8%; with Rattus norvegicus [4], 44.1%.
For `O=C(c1ccccc1Nc1cccc(C(F)(F)F)c1)N1CCSCC1`, the inhibition in vivo at 150 µmol/kg came out at 44% in the assay with Rattus norvegicus [1], 54.1% in the assay on Rattus norvegicus [2], 64.2% in the assay with Rattus norvegicus [3] and 52.8% in the assay on Rattus norvegicus [4].
With `O=C(CCCCC1CCSS1)N1CCSCC1` (stereo unspecified), the inhibition in vivo at 150 µmol/kg in the assay with Rattus norvegicus [1] came out at 59%.
Take `Cc1c(Cl)cccc1Nc1ccccc1C(=O)N1CCSCC1`: the inhibition in vivo at 150 µmol/kg was 45% in the assay with Rattus norvegicus [1], 80% with Rattus norvegicus [2], 70.5% in the assay with Rattus norvegicus [3] and 65.9% in the assay with Rattus norvegicus [4].
On the same counts, the results for `CC(C)Cc1ccc(C(C)C(=O)N2CCSCC2)cc1` (stereo unspecified) are 41%, 64.2%, 57.6% and 60.3%.
`COc1ccc2cc(C(C)C(=O)N3CCSCC3)ccc2c1` (stereo unspecified): the inhibition in vivo at 150 µmol/kg in the assay with Rattus norvegicus [1] amounted to 62%; with Rattus norvegicus [2] it was 61.3%; in the assay on Rattus norvegicus [3], 81.4%; in the assay on Rattus norvegicus [4] it was 57.8%.
`O=C(Cc1c[nH]c2ccccc12)N1CCSCC1`: the inhibition in vivo at 150 µmol/kg in the assay with Rattus norvegicus [1] came out at 29%.
Turning to `Cc1cccc(Nc2ccccc2C(=O)N2CCSCC2)c1C`, the inhibition in vivo at 150 µmol/kg came out at 46% with Rattus norvegicus [1], 81.5% in the assay with Rattus norvegicus [2], 71.3% with Rattus norvegicus [3] and 80.5% in the assay with Rattus norvegicus [4].
Regarding `COc1ccc2c(c1)c(CC(=O)N1CCSCC1)c(C)n2C(=O)c1ccc(Cl)cc1`, the inhibition in vivo at 150 µmol/kg in the assay on Rattus norvegicus [1] came out at 38%; with Rattus norvegicus [2], 79.5%; in the assay on Rattus norvegicus [3] it was 83%; in the assay with Rattus norvegicus [4] it was 73%.
For `O=C(O)Cc1ccccc1Nc1c(Cl)cccc1Cl` [DICLOFENAC], in the assay on Rattus norvegicus [1], the inhibition in vivo at 150 µmol/kg was determined as 37%.
For `O=C(O)c1ccccc1Nc1cccc(C(F)(F)F)c1` [FLUFENAMIC ACID], the inhibition in vivo at 150 µmol/kg with Rattus norvegicus [1] came to 19%.
With `CC(C)Cc1ccc(C(C)C(=O)O)cc1` (stereo unspecified) [IBUPROFEN], in the assay with Rattus norvegicus [1], the inhibition in vivo at 150 µmol/kg came out at 36%.
The same measure, in the same setting: the figure for `COc1ccc2c(c1)c(CC(=O)O)c(C)n2C(=O)c1ccc(Cl)cc1` [INDOMETHACIN] is 42%; for `Cc1cccc(Nc2ccccc2C(=O)O)c1C` [MEFENAMIC ACID] it is 44%; for `COc1ccc2cc([C@H](C)C(=O)O)ccc2c1` [NAPROXEN] it is 11%.
On the same count and under the same terms, the figure for `Cc1c(Cl)cccc1Nc1ccccc1C(=O)O` [TOLFENAMIC ACID] is 24%.

The values are drawn from ChEMBL document CHEMBL3751779, “Amides of non-steroidal anti-inflammatory drugs with thiomorpholine can yield hypolipidemic agents with improved anti-inflammatory activity” (Bioorg Med Chem Lett, 2016).
